According to patent US8871753B2, “Macrocyclic compounds and their use as kinase inhibitors” (Incyte Corporation, priority 2008, dated 2014):
Where a name gives a salt, the structure may show the parent alone. Each block holds one molecule with its values, some of them ahead of it.

Experiments:
Assay type in all cases: biochemical
[1] = target: T1, human JAK3 (a.a. 781-1124) (Homo sapiens, UniProt P52333); test: In vitro JAK kinase assay (HTRF, phosphorylation of a biotinylated peptide), JAK3; details: Table B1
T1 construct: JAK3 (a.a. 781-1124); His tag (N); made in house; host or cells: insect cells (baculovirus)
In short: (§1)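 Kinase reactions ran at room temperature for 1 h with ATP matched per isoform (JAK1 90 μM, JAK2 30 μM, JAK3 3 μM). After an EDTA stop, the phosphorylated biotin-peptide was read by HTRF using Eu-Py20 and SA-APC after 40 min binding.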

[2] = target: TYK2 (Homo sapiens, UniProt P29597); test: TYK2 kinase inhibition (Table A1); details: Table B1
[3] = target: T2, Recombinant Human Anaplastic Lymphoma Kinase (Homo sapiens, UniProt Q9UM73); test: ALK HTRF kinase assay; details: for ALK % of inhibition at a concentration of 500 nM or 1 mM: compound at a concentration of 500 nM or 1 mM (not specified), cells shown as percentage
T2 construct: purchased Invitrogen, Carlsbad, Calif
In short: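 Readout was HTRF between a Eu-W1024 anti-phosphotyrosine antibody and streptavidin-APC bound to biotinylated peptide phosphorylated by recombinant human ALK. IC50 values came from a four-parameter logistic fit.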

[4] = target: T3, human JAK2 (a.a. 828-1132) (Homo sapiens, UniProt O60674); test: In vitro JAK kinase assay (HTRF, phosphorylation of a biotinylated peptide), JAK2; details: Table B1
T3 construct: JAK2 (a.a. 828-1132); His tag (N); made in house; host or cells: insect cells (baculovirus)
In short: as §1

[5] = target: T4, human JAK1 (a.a. 837-1142) (Homo sapiens, UniProt P23458); test: In vitro JAK kinase assay (HTRF, phosphorylation of a biotinylated peptide), JAK1; details: Table B1; read-out: JAK1 IC50
T4 construct: human JAK1 (a.a. 837-1142); His tag (N); made in house; host or cells: insect cells (baculovirus)
In short: as §1

T3 sequence (O60674 828-1132): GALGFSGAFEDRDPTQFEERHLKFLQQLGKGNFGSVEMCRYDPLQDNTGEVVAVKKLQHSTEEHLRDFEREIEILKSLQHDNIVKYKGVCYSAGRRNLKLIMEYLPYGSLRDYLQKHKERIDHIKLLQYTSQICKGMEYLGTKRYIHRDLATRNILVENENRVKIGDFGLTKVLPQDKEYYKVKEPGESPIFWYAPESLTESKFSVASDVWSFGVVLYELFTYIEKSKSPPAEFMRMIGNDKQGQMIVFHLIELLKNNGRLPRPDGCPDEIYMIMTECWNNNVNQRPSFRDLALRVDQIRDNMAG
Chain of TYK2 (P29597 whole entry): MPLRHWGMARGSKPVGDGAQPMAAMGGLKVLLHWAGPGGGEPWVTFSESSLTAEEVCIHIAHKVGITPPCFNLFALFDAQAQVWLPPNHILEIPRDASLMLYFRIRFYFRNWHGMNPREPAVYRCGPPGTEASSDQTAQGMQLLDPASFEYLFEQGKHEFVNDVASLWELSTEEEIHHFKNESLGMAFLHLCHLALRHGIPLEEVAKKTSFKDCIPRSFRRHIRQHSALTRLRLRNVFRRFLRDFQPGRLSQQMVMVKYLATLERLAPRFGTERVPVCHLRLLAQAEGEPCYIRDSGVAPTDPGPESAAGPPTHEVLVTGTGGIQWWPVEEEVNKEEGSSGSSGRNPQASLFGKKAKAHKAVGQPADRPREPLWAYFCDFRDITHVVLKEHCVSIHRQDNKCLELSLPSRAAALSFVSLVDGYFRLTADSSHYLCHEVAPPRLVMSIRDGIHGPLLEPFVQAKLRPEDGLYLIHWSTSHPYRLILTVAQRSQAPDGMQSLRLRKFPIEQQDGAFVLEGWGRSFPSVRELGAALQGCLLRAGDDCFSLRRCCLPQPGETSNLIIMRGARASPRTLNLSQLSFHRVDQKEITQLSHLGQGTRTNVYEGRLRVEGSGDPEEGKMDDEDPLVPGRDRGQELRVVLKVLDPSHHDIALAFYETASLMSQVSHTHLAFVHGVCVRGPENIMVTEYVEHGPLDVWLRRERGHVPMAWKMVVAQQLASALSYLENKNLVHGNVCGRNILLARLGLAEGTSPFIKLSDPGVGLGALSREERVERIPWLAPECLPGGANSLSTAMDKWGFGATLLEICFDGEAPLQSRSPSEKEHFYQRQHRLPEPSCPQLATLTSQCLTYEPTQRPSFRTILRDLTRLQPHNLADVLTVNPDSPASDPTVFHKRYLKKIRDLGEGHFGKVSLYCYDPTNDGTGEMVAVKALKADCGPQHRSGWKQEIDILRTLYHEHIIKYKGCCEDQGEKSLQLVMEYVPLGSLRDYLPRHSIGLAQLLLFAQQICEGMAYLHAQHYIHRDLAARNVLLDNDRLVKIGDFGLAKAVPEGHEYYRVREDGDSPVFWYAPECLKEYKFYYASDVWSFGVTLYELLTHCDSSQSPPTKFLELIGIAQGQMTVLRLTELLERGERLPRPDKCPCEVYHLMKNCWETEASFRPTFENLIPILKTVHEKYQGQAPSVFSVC
T2 sequence (Q9UM73 19-1620): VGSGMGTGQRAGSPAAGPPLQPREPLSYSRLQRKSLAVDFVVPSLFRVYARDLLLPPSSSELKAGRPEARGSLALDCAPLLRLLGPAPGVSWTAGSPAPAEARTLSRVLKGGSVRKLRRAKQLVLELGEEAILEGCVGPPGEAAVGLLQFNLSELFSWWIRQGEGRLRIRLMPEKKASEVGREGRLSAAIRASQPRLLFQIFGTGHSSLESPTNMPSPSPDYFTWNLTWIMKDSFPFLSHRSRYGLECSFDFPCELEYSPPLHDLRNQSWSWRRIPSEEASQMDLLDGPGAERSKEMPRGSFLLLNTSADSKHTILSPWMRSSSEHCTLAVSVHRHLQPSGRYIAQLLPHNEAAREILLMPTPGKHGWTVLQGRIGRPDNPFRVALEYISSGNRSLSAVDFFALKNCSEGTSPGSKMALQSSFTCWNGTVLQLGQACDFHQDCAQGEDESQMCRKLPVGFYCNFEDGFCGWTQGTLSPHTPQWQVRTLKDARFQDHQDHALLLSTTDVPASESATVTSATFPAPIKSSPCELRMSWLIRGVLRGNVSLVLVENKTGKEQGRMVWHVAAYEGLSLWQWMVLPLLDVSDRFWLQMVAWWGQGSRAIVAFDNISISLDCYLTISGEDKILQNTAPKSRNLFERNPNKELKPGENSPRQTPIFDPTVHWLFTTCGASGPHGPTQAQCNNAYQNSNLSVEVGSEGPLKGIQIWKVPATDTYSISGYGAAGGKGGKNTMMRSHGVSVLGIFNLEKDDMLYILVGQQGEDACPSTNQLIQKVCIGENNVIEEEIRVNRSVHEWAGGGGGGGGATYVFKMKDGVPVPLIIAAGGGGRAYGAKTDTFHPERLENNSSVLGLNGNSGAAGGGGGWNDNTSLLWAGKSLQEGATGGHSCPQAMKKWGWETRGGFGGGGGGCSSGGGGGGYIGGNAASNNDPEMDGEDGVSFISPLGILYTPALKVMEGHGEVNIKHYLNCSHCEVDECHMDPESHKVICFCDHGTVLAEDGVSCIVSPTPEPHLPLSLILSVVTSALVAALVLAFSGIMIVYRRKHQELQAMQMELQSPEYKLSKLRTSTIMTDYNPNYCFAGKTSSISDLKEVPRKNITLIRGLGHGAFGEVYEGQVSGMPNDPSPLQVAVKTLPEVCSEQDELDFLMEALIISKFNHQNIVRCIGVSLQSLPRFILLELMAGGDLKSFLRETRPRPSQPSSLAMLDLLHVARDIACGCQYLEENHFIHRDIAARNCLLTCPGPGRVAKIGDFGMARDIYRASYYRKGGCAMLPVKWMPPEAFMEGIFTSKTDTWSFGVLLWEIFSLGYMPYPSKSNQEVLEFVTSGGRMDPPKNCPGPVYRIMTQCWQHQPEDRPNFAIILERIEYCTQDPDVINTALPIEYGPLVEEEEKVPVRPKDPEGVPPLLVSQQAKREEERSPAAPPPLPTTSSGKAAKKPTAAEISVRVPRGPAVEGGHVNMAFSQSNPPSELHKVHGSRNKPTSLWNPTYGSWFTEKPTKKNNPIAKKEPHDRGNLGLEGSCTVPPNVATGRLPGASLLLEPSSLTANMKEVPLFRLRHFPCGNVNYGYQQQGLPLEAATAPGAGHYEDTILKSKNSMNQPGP
T1 sequence (P52333 781-1124): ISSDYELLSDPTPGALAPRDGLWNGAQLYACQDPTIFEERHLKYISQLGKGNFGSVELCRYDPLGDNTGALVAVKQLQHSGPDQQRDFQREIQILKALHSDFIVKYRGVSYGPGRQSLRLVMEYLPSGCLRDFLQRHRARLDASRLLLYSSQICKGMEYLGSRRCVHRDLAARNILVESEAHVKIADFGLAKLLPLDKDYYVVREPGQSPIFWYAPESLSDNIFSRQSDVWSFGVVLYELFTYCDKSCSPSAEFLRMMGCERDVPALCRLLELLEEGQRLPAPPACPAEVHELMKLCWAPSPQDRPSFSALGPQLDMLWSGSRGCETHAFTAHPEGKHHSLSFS
T4 sequence (P23458 849-1154): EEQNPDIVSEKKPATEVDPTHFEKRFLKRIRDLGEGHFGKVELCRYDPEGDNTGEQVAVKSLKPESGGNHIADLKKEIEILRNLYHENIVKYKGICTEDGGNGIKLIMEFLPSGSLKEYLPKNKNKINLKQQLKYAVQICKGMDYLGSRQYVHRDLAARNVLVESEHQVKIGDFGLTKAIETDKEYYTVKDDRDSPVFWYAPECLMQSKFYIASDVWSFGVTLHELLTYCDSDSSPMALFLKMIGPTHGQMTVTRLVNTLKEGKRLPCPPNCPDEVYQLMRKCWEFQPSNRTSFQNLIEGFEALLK

- IC50 [1]: 0.063 µM
- IC50 [2]: 0.019 µM
- ALK % of inhibition at a concentration of 500 nM or 1 mM [3]: 10%
- IC50 [4]: 0.011 µM
- IC50 [5]: 0.006 µM
SMILES: O=C(Nc1ccc2cc1CCc1cccc(c1)Nc1ncc(Cl)c(n1)N2)N[C@H]1CCN(C(=O)C2CC2)C1 [Example B228, N-[6-Chloro-2,4,8,22-tetraazatetracyclo[14.3.1.1(3,7).1(9,13)]docosa-1(20),3(22),4,6,9(21),10,12,16,18-nonaen-12-yl]-N′-[(3S)-1-(cyclopropylcarbonyl)pyrrolidin-3-yl]urea trifluoroacetate]

- IC50 [1]: 0.076 µM
- IC50 [2]: 0.019 µM
- ALK % of inhibition at a concentration of 500 nM or 1 mM [3]: 6.5%
- IC50 [4]: 0.017 µM
- IC50 [5]: 0.009 µM
SMILES: CC(C)C(=O)N1CC[C@H](NC(=O)Nc2ccc3cc2CCc2cccc(c2)Nc2ncc(Cl)c(n2)N3)C1 [Example B229, N-[6-Chloro-2,4,8,22-tetraazatetracyclo[14.3.1.1(3,7).1(9,13)]docosa-1(20),3(22),4,6,9(21),10,12,16,18-nonaen-12-yl]-N′-[(3S)-1-isobutyrylpyrrolidin-3-yl]urea trifluoroacetate]

- IC50 [1]: 0.05 µM
- IC50 [2]: 0.015 µM
- ALK % of inhibition at a concentration of 500 nM or 1 mM [3]: 11%
- IC50 [4]: 0.007 µM
- IC50 [5]: 0.002 µM
SMILES: O=C(Nc1ccc2cc1CCc1cccc(c1)Nc1ncc(Cl)c(n1)N2)N[C@H]1CCN(C(=O)c2ccno2)C1 [Example B230, N-[6-Chloro-2,4,8,22-tetraazatetracyclo[14.3.1.1(3,7).1(9,13)]docosa-1(20),3(22),4,6,9(21),10,12,16,18-nonaen-12-yl]-N′-[(3S)-1-(isoxazol-5-ylcarbonyl)pyrrolidin-3-yl]urea trifluoroacetate]

- IC50 [1]: 0.065 µM
- IC50 [2]: 0.016 µM
- ALK % of inhibition at a concentration of 500 nM or 1 mM [3]: 8.1%
- IC50 [4]: 0.0055 µM
- IC50 [5]: 0.004 µM
SMILES: O=C(Nc1ccc2cc1CCc1cccc(c1)Nc1ncc(Cl)c(n1)N2)N[C@H]1CCN(C(=O)c2nccs2)C1 [Example B231, N-[6-Chloro-2,4,8,22-tetraazatetracyclo[14.3.1.1(3,7).1(9,13)]docosa-1(20),3(22),4,6,9(21),10,12,16,18-nonaen-12-yl]-N′-[(3S)-1-(1,3-thiazol-2-ylcarbonyl)pyrrolidin-3-yl]urea trifluoroacetate]

- IC50 [1]: 0.072 µM
- IC50 [2]: 0.026 µM
- ALK % of inhibition at a concentration of 500 nM or 1 mM [3]: 10%
- IC50 [4]: 0.011 µM
- IC50 [5]: 0.004 µM
SMILES: Cn1ccc(C(=O)N2CC[C@H](NC(=O)Nc3ccc4cc3CCc3cccc(c3)Nc3ncc(Cl)c(n3)N4)C2)n1 [Example B232, N-[6-Chloro-2,4,8,22-tetraazatetracyclo[14.3.1.1(3,7).1(9,13)]docosa-1(20),3(22),4,6,9(21),10,12,16,18-nonaen-12-yl]-N′-{(3S)-1-[(1-methyl-1H-pyrazol-3-yl)carbonyl]pyrrolidin-3-yl}urea bis(trifluoroacetate)]

- IC50 [1]: 0.102 µM
- IC50 [2]: 0.024 µM
- ALK % of inhibition at a concentration of 500 nM or 1 mM [3]: 5.8%
- IC50 [4]: 0.011 µM
- IC50 [5]: 0.007 µM
SMILES: O=C(Nc1ccc2cc1CCc1cccc(c1)Nc1ncc(Cl)c(n1)N2)N[C@H]1CCN(C(=O)c2ccccn2)C1 [Example B233, N-[6-Chloro-2,4,8,22-tetraazatetracyclo[14.3.1.1(3,7).1(9,13)]docosa-1(20),3(22),4,6,9(21),10,12,16,18-nonaen-12-yl]-N′-[(3S)-1-(pyridin-2-ylcarbonyl)pyrrolidin-3-yl]urea bis(trifluoroacetate)]

Further lines, the molecule ahead of its results:

SMILES: Clc1cccc(N2CCN(Cc3cc4cc(c3)Nc3nc(ncc3Cl)Nc3cccc(c3)CC4)CC2)n1 [Example B217, 6-Chloro-11-{[4-(6-chloropyridin-2-yl)piperazin-1-yl]methyl}-2,4,8,22-tetraazatetracyclo[14.3.1.1(3,7).1(9,13)]docosa-1(20),3(22),4,6,9(21),10,12,16,18-nonaene tris(trifluoroacetate)]
- IC50 [1]: 0.199 µM
- IC50 [2]: > 1 µM
- IC50 ([3]; Table B1, cells without percent sign): > 10 µM
- IC50 [4]: 0.071 µM
- IC50 [5]: 0.225 µM

SMILES: CC(C)(C)OC(=O)N1CC[C@@H](NCc2ccc3cc2CCc2cccc(c2)Nc2ncc(Cl)c(n2)N3)C1 [Example B219, tert-Butyl (3R)-3-({[6-chloro-2,4,8,22-tetraazatetracyclo[14.3.1.1(3,7).1(9,13)]docosa-1(20),3(22),4,6,9(21),10,12,16,18-nonaen-12-yl]methyl}amino)pyrrolidine-1-carboxylate bis(trifluoroacetate)]
- IC50 [1]: 0.029 µM
- IC50 [2]: 0.029 µM
- ALK % of inhibition at a concentration of 500 nM or 1 mM [3]: 26%
- IC50 [4]: 0.016 µM
- IC50 [5]: 0.0066 µM

SMILES: CC(C)(C)OC(=O)N1CC[C@H](NCc2ccc3cc2CCc2cccc(c2)Nc2ncc(Cl)c(n2)N3)C1 [Example B220, tert-Butyl (3S)-3-({[6-chloro-2,4,8,22-tetraazatetracyclo[14.3.1.1(3,7).1(9,13)]docosa-1(20),3(22),4,6,9(21),10,12,16,18-nonaen-12-yl]methyl}amino)pyrrolidine-1-carboxylate bis(trifluoroacetate)]
- IC50 [1]: 0.036 µM
- IC50 [2]: 0.028 µM
- ALK % of inhibition at a concentration of 500 nM or 1 mM [3]: 25%
- IC50 [4]: 0.012 µM
- IC50 [5]: 0.0074 µM

SMILES: CC(C)(C)OC(=O)N1CCN(Cc2ccc3cc2CCc2cccc(c2)Nc2ncc(Cl)c(n2)N3)CC1 [Example B221, tert-Butyl 4-{[6-chloro-2,4,8,22-tetraazatetracyclo[14.3.1.1(3,7).1(9,13)]docosa-1(20),3(22),4,6,9(21),10,12,16,18-nonaen-12-yl]methyl}piperazine-1-carboxylate bis(trifluoroacetate)]
- IC50 [1]: 0.059 µM
- IC50 [2]: 0.043 µM
- ALK % of inhibition at a concentration of 500 nM or 1 mM [3]: 8.1%
- IC50 [4]: 0.019 µM
- IC50 [5]: 0.012 µM

SMILES: Clc1cnc2nc1Nc1ccc(CN[C@@H]3CCNC3)c(c1)CCc1cccc(c1)N2 [Example B222, (3R)—N-{[6-Chloro-2,4,8,22-tetraazatetracyclo[14.3.1.1(3,7).1(9,13)]docosa-1(20),3(22),4,6,9(21),10,12,16,18-nonaen-12-yl]methyl}pyrrolidin-3-amine tris(trifluoroacetate)]
- IC50 [1]: 0.04 µM
- IC50 [2]: 0.054 µM
- ALK % of inhibition at a concentration of 500 nM or 1 mM [3]: 34%
- IC50 [4]: 0.014 µM
- IC50 [5]: 0.02 µM

SMILES: Clc1cnc2nc1Nc1ccc(CN[C@H]3CCNC3)c(c1)CCc1cccc(c1)N2 [Example B223, (3S)—N-{[6-Chloro-2,4,8,22-tetraazatetracyclo[14.3.1.1(3,7).1(9,13)]docosa-1(20),3(22),4,6,9(21),10,12,16,18-nonaen-12-yl]methyl}pyrrolidin-3-amine tris(trifluoroacetate)]
- IC50 [1]: 0.029 µM
- IC50 [2]: 0.042 µM
- ALK % of inhibition at a concentration of 500 nM or 1 mM [3]: 41%
- IC50 [4]: 0.0074 µM
- IC50 [5]: 0.017 µM

SMILES: Clc1cnc2nc1Nc1ccc(CN3CCNCC3)c(c1)CCc1cccc(c1)N2 [Example B224, 6-Chloro-12-(piperazin-1-ylmethyl)-2,4,8,22-tetraazatetracyclo[14.3.1.1(3,7).1(9,13)]docosa-1(20),3(22),4,6,9(21),10,12,16,18-nonaene tris(trifluoroacetate)]
- IC50 [1]: 0.041 µM
- IC50 [2]: 0.041 µM
- ALK % of inhibition at a concentration of 500 nM or 1 mM [3]: 28%
- IC50 [4]: 0.0089 µM
- IC50 [5]: 0.019 µM

SMILES: CC(=O)N1CCN(Cc2ccc3cc2CCc2cccc(c2)Nc2ncc(Cl)c(n2)N3)CC1 [Example B225, 12-[(4-Acetylpiperazin-1-yl)methyl]-6-chloro-2,4,8,22-tetraazatetracyclo[14.3.1.1(3,7).1(9,13)]docosa-1(20),3(22),4,6,9(21),10,12,16,18-nonaene bis(trifluoroacetate)]
- IC50 [1]: 0.037 µM
- IC50 [2]: 0.046 µM
- ALK % of inhibition at a concentration of 500 nM or 1 mM [3]: 27%
- IC50 [4]: 0.01 µM
- IC50 [5]: 0.031 µM

SMILES: CC(=O)N1CC[C@H](NC(=O)Nc2ccc3cc2CCc2cncc(c2)Nc2ncc(Cl)c(n2)N3)C1 [Example B226, N-[(3S)-1-Acetylpyrrolidin-3-yl]-N′-[6-chloro-2,4,8,18,22-pentaazatetracyclo[14.3.1.1(3,7).1(9,13)]docosa-1(20),3(22),4,6,9(21),10,12,16,18-nonaen-12-yl]urea bis(trifluoroacetate)]
- IC50 [1]: 0.306 µM
- IC50 [2]: 0.062 µM
- ALK % of inhibition at a concentration of 500 nM or 1 mM [3]: 15%
- IC50 [4]: 0.042 µM
- IC50 [5]: 0.004 µM

SMILES: O=C(Nc1ccc2cc1CCc1cncc(c1)Nc1ncc(Cl)c(n1)N2)N[C@H]1CCN(C(=O)c2ccccc2)C1 [Example B227, N-[(3S)-1-benzoylpyrrolidin-3-yl]-N′-[6-chloro-2,4,8,18,22-pentaazatetracyclo[14.3.1.1(3,7).1(9,13)]docosa-1(20),3(22),4,6,9(21),10,12,16,18-nonaen-12-yl]urea bis(trifluoroacetate)]
- IC50 [1]: 0.245 µM
- IC50 [2]: 0.033 µM
- ALK % of inhibition at a concentration of 500 nM or 1 mM [3]: 25%
- IC50 [4]: 0.029 µM
- IC50 [5]: 0.001 µM
